Results as given in patent publication US6403117B1, “Archaesomes, archaeosomes containing coenzyme Q10 and other types of liposomes containing coenzyme Q10 adjuvants and as delivery vehicles” (National Research Council of Canada, priority 1995, dated 2002).

Test system: bovine serum albumin (BSA) antigen
Assay: Immunization, humoral response by ELISA
Type: in vivo, mice
Details: for Antibody titres (A410 nm): 12.5 μg BSA i.p. at days 0 and 14, sera diluted by a factor of 400
Experimental: For in vivo studies with archaeosomes (prepared from the TPL, or a lipid obtained in a biologically pure form from the indicated archaeobacterium) and conventional liposomes (prepared from DMPC:DMPG at 1.8:0.2 molar ratio, or DMPC:DMPG:CHOL at 1.8:0.2:1.5 molar ratio, or DMPC:DCP:CHOL at 7:1:2 molar ratio) containing entrapped antigen, the vesicles were prepared by pressure extrusion (at room temperature for archaeobacterial and at 35° C. for DMPC-containing lipids, using 400 nm pore size filters). About 20 mg dry weight of the dried lipid(s) was hydrated in 1 ml PBS containing either BSA (5 mg/ml), Cholera B toxin subunit (0.5 mg/ml), or O-chain polysaccharide (18 mg/ml). To entrap BSA in DSPC:DCP:CHOL (4:1:5, molar ratio), in DSPC:DCP:CHOL:CoQ10 (3:1:4:2, molar ratio), and M. mazei TPL:CoQ10 (8:2, molar ratio), the vesicles were prepared by the REV (at 55° C.)-sonication method described above. The BSA was encapsulated in these vesicles by the DRV method as described by New (13). The antigen that was not entrapped/associated with the vesicles was removed by centrifugation and washing as described for peroxidase-vesicles.
The immunization strategies were similar for each of the different experiments. For each experiment, details of the amounts and types of antigen/adjuvant injected, and the time intervals between injections is described in the appropriate figure legends. Freund's adjuvant (FA) encompasses Freund's complete adjuvant (CFA) and Freund's incomplete adjuvant (IFA) used at 62.5% strength in PBS. For each antigen/adjuvant preparation three mice were injected (unless indicated otherwise) i.p., i.m., or s.c. with antigens encapsulated in archaeosomes or liposomes (diluted in sterile PBS, pH 7.1), antigens emulsified in CFA, or with antigens diluted in PBS alone (final volume, 0.2 ml/mouse). For the second immunization, mice were injected with antigens encapsulated in archaeosomes or liposomes, or emulsified in IFA, or diluted in PBS. For experiments where a third or fourth injection was required, antigens were injected either encapsulated in the respective vesicle type or as bare antigen diluted in PBS. Mice were 6-8 weeks of age at the time of the first immunization.
Mice were bled from the tail veins usually four days after each injection. The blood was allowed to dot, and cells removed from the serum by centrifuging in serum separator tubes.
The humoral response was measured by the indirect enzyme-linked immunosorbent assay (ELISA) using a variety of solid-phase adsorbed antigens. BSA, Cholera B toxin subunit, or E. coli 0:157:H7 lipopolysaccharide was diluted in distilled water (15 μg/ml final concentration) and 100 μl/well was dried (overnight incubation at 37° C.) to coat the ELISA microplate wells. All indirect ELISA assays were performed using standard methods. Dilutions of antibody-containing sera were used as the first antibody and a 1/1500 dilution of HRP-conjugated goat anti-mouse IgG+IgM as the detection antibody.
The isotypes of anti-BSA antibodies raised in mouse sera were assayed by an ELISA method. Wells were coated with BSA (as above). Dilutions of each serum were titred with peroxidase-coupled sheep anti-mouse IgG1, IgG2a, IgG2b, IgG3, and IgM. All ELISA data are reported as the means ± sample standard deviations.

Bare BSA: bovine serum albumin antigen alone in PBS, without adjuvant or vesicle
Antibody titres (A410 nm) (Day 25): 0.064 ± 0.001 A410 nm
Antibody titres (A410 nm) (Day 35): 0.082 ± 0.007 A410 nm
Antibody titres (A410 nm) (Day 55): 0.075 ± 0.008 A410 nm
Antibody titre (A410 nm) (i.m., 12.5 μg antigen alone in PBS, sera diluted 400-fold): 0.063 ± 0.003 A410 nm
Immune response (Relative %) (i.p., 12.5 μg BSA, days 0 and 14, blood day 20, IgG + IgM, archaeobacterial lipids none): 6.9 ± 0.3 Relative %
Antibody titre (A410 nm) (i.p., 25 μg antigen alone in PBS, no carrier/adjuvant, sera diluted 400 fold): 0.137 ± 0.002 A410 nm
Anti-BSA antibody Concentration (i.p., antigen alone in PBS, undiluted sera): 10.5 µg/mL
